Tested on: KRAS patient-derived spheroids with HUVEC/MSC, viability
Experiment: Anticancer human tumor 941728-121-R-J1-PDC patient-derived lung adenocarcinoma cell line growth inhibition [KRAS2]
Details: for IC50: curve of first compound; for viability, T/C: stronger effect = lower value
Text: Multicellular complex tumor spheroid response to RAS pathway inhibitors in combination with a targeted agents in patient-derived cell lines with oncogenic KRAS variants from multiple cancer types
A high-throughput screen of multi-cell type tumor spheroids was designed to identify active combinations of targeted small molecules and KRAS pathway inhibitors. Complex spheroids include a stromal component modeled by human endothelial cells (HUVEC) and fibroblasts modeled by human mesenchymal stem cells (MSCs). The concentration ranges selected for each drug and investigational agent were based upon clinically achievable concentrations if the clinical Cmax of the agent was known.
Compounds. The drugs and investigational agents: BI-3406 (NSC825286), BAY-293 (NSC824723), batoprotafib (TNO155; NSC825523), sotorasib (AMG 510; NSC818433), MRTX1257 (NSC819558), elimusertib (BAY 1895344; NSC800525), molibresib (GSK525762; NSC774829), temuterkib (LY3214996; NSC803410), venetoclax (NSC766270), alisertib (NSC759677), olaparib (NSC753686), talazoparib (NSC767125), erdafitinib (NSC781556), ipatasertib (NSC767898), cabozantinib (NSC761068), nintedanib (NSC756659), abemaciclib (NSC768073), docetaxel (NSC628503), trametinib (NSC758246), and sapanisertib (NSC764658) were obtained from the National Cancer Institute (NCI) Developmental Therapeutics Program Chemical Repository. The FDA-approved anticancer drug set is available from the Developmental Therapeutics Program. […] The stock solutions were prepared in dimethyl sulfoxide (DMSO, Sigma-Aldrich, St. Louis, MO, cat. D2650) at 800-fold the tested concentration and stored at -70 degrees C prior to their use. All drugs and investigational agents were tested over a range starting from a high concentration at or near the clinical Cmax and decreasing in half-log increments. If the clinical Cmax for an agent had not been determined, the highest concentration tested was 10 microM.
Cell Culture. All cells were maintained in an incubator at 37 degrees C and 5% CO2 with 95% humidity. The PDC lines were cultured according to standard operating procedures established by the NCI PDMR (https://pdmr.cancer.gov/sops/default.htm). Briefly, all PDCs were thawed and cultured in Matrigel-coated flasks prepared with a working solution of 1X Ham's F-12 nutrient mix, without supplementation (Invitrogen, Waltham, MA, cat. 11765054), 100 U/mL penicillin-streptomycin (Invitrogen, cat. 15140122), and 2.5% Matrigel (Corning Inc., Corning, NY, cat. 354248) for the first three passages. All PDCs were cultured in complete DMEM/F-12 media containing advanced DMEM/F-12 (Invitrogen, cat. 12634028), 4.9% defined fetal bovine serum, heat inactivated (HyClone Laboratories Inc., Logan, UT, cat. SH30070.03HI), 389 ng/mL hydrocortisone (Sigma-Aldrich, cat. H4001), 9.7 ng/mL human EGF recombinant protein (Invitrogen, cat. PHG0313), 23.4 microg/mL adenine (Sigma-Aldrich, cat. A2786), 97.3 U/mL penicillin-streptomycin (Invitrogen, cat. 15140122), 1.9 mM L-glutamine (Invitrogen, cat. 25030081), and 9.7 microM Y-27632 dihydrochloride (Tocris Bioscience, Bristol, United Kingdom, cat. 1254). The PDCs were cultured in complete DMEM/F12 media without 9.7 microM Y-27632 dihydrochloride for at least two passages prior to the screen. The established cell line HOP-62 was cultured in RPMI 1640 medium, HEPES (Invitrogen, cat. 22400105) with 10% defined fetal bovine serum (HyClone Laboratories Inc., cat. SH30070.03) and 2 mM L-glutamine (Invitrogen, cat. 25030081). The pooled donor HUVEC were cultured in endothelial cell growth medium 2 (PromoCell, Heidelberg, Germany, cat. C-22011) and the hMSC were cultured in mesenchymal stem cell growth medium 2 (PromoCell, cat. C-28009). For all experiments, HUVEC and hMSC were used at passages </=5, while the malignant cell lines were used at passages </=15. […]

[1] = second compound 0.1 µM, first compound 0.0316 µM
[2] = second compound 0.316 µM, first compound 0.0316 µM
[3] = second compound 1 µM, first compound 0.0316 µM
[4] = second compound 3.16 µM, first compound 0.0316 µM
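Note: spheroids exposed to agents for seven days before readout.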

## CCNC(=O)CC1N=C(c2ccc(Cl)cc2)c2cc(OC)ccc2-n2c(C)nnc21 (centres undefined) + COc1cc2nc(C)nc(NC(C)c3cc(N)cc(C(F)(F)F)c3)c2cc1OC1CCOC1
Second compound 0.1 µM
  IC50: 36.2 nM
Second compound 0.316 µM
  IC50: < 31.6 nM
Second compound 1 µM
  IC50: < 31.6 nM
Second compound 3.16 µM
  IC50: < 31.6 nM
Second compound 10 µM
  IC50: < 31.6 nM
[1]
  viability, T/C: 49.5%
Second compound 0.1 µM, first compound 0.1 µM
  viability, T/C: 48.2%
Second compound 0.1 µM, first compound 0.316 µM
  viability, T/C: 30.6%
Second compound 0.1 µM, first compound 1 µM
  viability, T/C: 16.1%
Second compound 0.1 µM, first compound 3.16 µM
  viability, T/C: 11.1%
Second compound 0.1 µM, first compound 10 µM
  viability, T/C: 9.43%
[2]
  viability, T/C: 46.2%
Second compound 0.316 µM, first compound 0.1 µM
  viability, T/C: 42.6%
Second compound 0.316 µM, first compound 0.316 µM
  viability, T/C: 34.4%
Second compound 0.316 µM, first compound 1 µM
  viability, T/C: 12.6%
Second compound 0.316 µM, first compound 3.16 µM
  viability, T/C: 9.51%
Second compound 0.316 µM, first compound 10 µM
  viability, T/C: 9.32%
[3]
  viability, T/C: 45.1%
Second compound 1 µM, first compound 0.1 µM
  viability, T/C: 40.7%
Second compound 1 µM, first compound 0.316 µM
  viability, T/C: 29.2%
Second compound 1 µM, first compound 1 µM
  viability, T/C: 8.81%
Second compound 1 µM, first compound 3.16 µM
  viability, T/C: 7.25%
Second compound 1 µM, first compound 10 µM
  viability, T/C: 6.02%
[4]
  viability, T/C: 38.3%
Second compound 3.16 µM, first compound 0.1 µM
  viability, T/C: 33%
Second compound 3.16 µM, first compound 0.316 µM
  viability, T/C: 23.5%
Second compound 3.16 µM, first compound 1 µM
  viability, T/C: 8.14%
Second compound 3.16 µM, first compound 3.16 µM
  viability, T/C: 7.37%
Second compound 3.16 µM, first compound 10 µM
  viability, T/C: 8.71%
Second compound 10 µM, first compound 0.0316 µM
  viability, T/C: 20.3%
Second compound 10 µM, first compound 0.1 µM
  viability, T/C: 13.9%
Second compound 10 µM, first compound 0.316 µM
  viability, T/C: 14.2%
Second compound 10 µM, first compound 1 µM
  viability, T/C: 3.3%
Second compound 10 µM, first compound 3.16 µM
  viability, T/C: 2.65%
Second compound 10 µM, first compound 10 µM
  viability, T/C: 1.91%

## CC1COCCN1c1cc(-c2ccnn2C)c2ccnc(-c3ccn[nH]3)c2n1 (centres undefined)
Compound 0.1 µM
  viability, T/C: 44% [middle of 5 runs]
Compound 0.316 µM
  viability, T/C: 42% [middle of 5 runs]
Compound 1 µM
  viability, T/C: 35.4% [middle of 5 runs]
Compound 3.16 µM
  viability, T/C: 33.2% [middle of 5 runs]

## CC(=O)Nc1cccc(-n2c(=O)n(C3CC3)c(=O)c3c(Nc4ccc(I)cc4F)n(C)c(=O)c(C)c32)c1 + C=CC(=O)N1CCN(c2nc(OCC3CCCN3C)nc3c2CCN(c2cccc4cccc(C)c24)C3)CC1CC#N
Second compound 0.0316 µM
  IC50: < 0.1 nM
Second compound 0.1 µM
  IC50: < 0.1 nM
Second compound 0.316 µM
  IC50: < 0.1 nM
Second compound 1 µM
  IC50: < 0.1 nM
Second compound 3.16 µM
  IC50: < 0.1 nM
Second compound 0.0316 µM, first compound 0.0001 µM
  viability, T/C: 31%
Second compound 0.0316 µM, first compound 0.000316 µM
  viability, T/C: 26.4%
Second compound 0.0316 µM, first compound 0.001 µM
  viability, T/C: 25.9%
Second compound 0.0316 µM, first compound 0.00316 µM
  viability, T/C: 25.4%
Second compound 0.0316 µM, first compound 0.01 µM
  viability, T/C: 24.2%
Second compound 0.0316 µM, first compound 0.0316 µM
  viability, T/C: 25.1%
Second compound 0.1 µM, first compound 0.0001 µM
  viability, T/C: 30.9%
Second compound 0.1 µM, first compound 0.000316 µM
  viability, T/C: 26.7%
Second compound 0.1 µM, first compound 0.001 µM
  viability, T/C: 25.4%
Second compound 0.1 µM, first compound 0.00316 µM
  viability, T/C: 25.5%
Second compound 0.1 µM, first compound 0.01 µM
  viability, T/C: 21.2%
[1]
  viability, T/C: 22%
Second compound 0.316 µM, first compound 0.0001 µM
  viability, T/C: 29.2%
Second compound 0.316 µM, first compound 0.000316 µM
  viability, T/C: 27.2%
Second compound 0.316 µM, first compound 0.001 µM
  viability, T/C: 23.4%
Second compound 0.316 µM, first compound 0.00316 µM
  viability, T/C: 24.1%
Second compound 0.316 µM, first compound 0.01 µM
  viability, T/C: 22.1%
[2]
  viability, T/C: 22.9%
Second compound 1 µM, first compound 0.0001 µM
  viability, T/C: 24%
Second compound 1 µM, first compound 0.000316 µM
  viability, T/C: 22.9%
Second compound 1 µM, first compound 0.001 µM
  viability, T/C: 19%
Second compound 1 µM, first compound 0.00316 µM
  viability, T/C: 21.3%
Second compound 1 µM, first compound 0.01 µM
  viability, T/C: 20%
[3]
  viability, T/C: 22.6%
Second compound 3.16 µM, first compound 0.0001 µM
  viability, T/C: 0.84%
Second compound 3.16 µM, first compound 0.000316 µM
  viability, T/C: 0.35%
Second compound 3.16 µM, first compound 0.001 µM
  viability, T/C: 1.24%
Second compound 3.16 µM, first compound 0.00316 µM
  viability, T/C: 0.89%
Second compound 3.16 µM, first compound 0.01 µM
  viability, T/C: 1.14%
[4]
  viability, T/C: 0.53%

From PubChem BioAssay AID1963862 (Molecular Pharmacology Branch, DTP, NCI, 2024)
